Assay results reported in patent US20180153860A1, “METHODS OF DOSE ADMINISTRATION FOR TREATING OR PREVENTING COGNITIVE IMPAIRMENT USING INDANE ACETIC ACID DERIVATIVES” (T3D Therapeutics, Inc., priority 2016, published 2018).

Legend:
[1] = test system: intracerebral (i.c.) Streptozotocin (STZ) rat model of Alzheimer's disease; assay: Intracerebral Streptozotocin rat model of Alzheimer's disease, Morris Water Maze testing; type: in vivo, Long Evans rats; conditions: 0.25 mg/kg oral gavage every other day for 14 days; control and STZ rats; tested 11 days post-dosing
Experimental: The experimental rat model of Alzheimer's disease used in Table 7 involves intracerebral (i.c.) treatment with Streptozotocin (STZ), to cause brain metabolic dysfunction and insulin resistance as occurs in human sporadic Alzheimer' disease, with minimal or no systemic side-effects. Long Evans 4-week old male and female rats (8-12/group) were anesthetized by intraperitoneal (i.p.) injection of ketamine (100 mg/kg) plus xylazine (10 mg/kg). After shaving and cleaning (betadine x2 followed by 70% ethanol) the scalps, the rats were positioned in a stereotaxic frame and a midline incision was made. With subcutaneous tissue and skeletal muscle separated and retracted with small surgical hooks, the bregma and lambda areas were cleaned with 3% H2O2 soaked cotton swabs. […]
T3D-959 administration (0.25 mg/kg) to control and STZ rats was by oral gavage every other day for a period of 14-days. […] The latency to locate the platform was measured. Spatial memory and orientation were assessed by requiring the rat to locate the hidden platform from different entry points in the maze. […]
Data were analyzed by first calculating area under curves for each set of 3 trials, then averaging the AUC results within-group. […] Data were analyzed by 1-way ANOVA with Fisher post-tests. […]

[2] = test system: mild to moderate severity Alzheimer's patients (MMSE=14-26); assay: ADAS-cog11 score change in Alzheimer's patients after 14-day treatment; type: in vivo, human
Experimental: ADAS-cog11 score change from day 1 to day 14 (D1-D14), the end of 2-week treatment is compared to the ADAS-cog 1 from day 1 to day 21 (D1-D21), 7-days post treatment follow-up. With ADAS-cog 1 test scoring a greater negative score denotes greater cognitive improvement. Drug treatment of mild to moderate severity Alzheimer's patients (MMSE=14-26) with T3D-959 was for 14 days q.d. at 3 mg, 10 mg, 30 mg or 90 mg (n=number of subjects evaluable at each dose).

## CCc1oc(-c2ccc(OC)cc2)nc1CCOc1ccc2c(c1)CC[C@H]2CC(=O)[O-].[Na+] [Example T3D-959]
[1]
  Morris Water Maze latency to locate the platform (spatial localization and memory, AUC of trials): benefited control as well as STZ-exposed rats
[2]; 10 mg cohort, 14 days q.d.
  subjects who exhibited an improved ADAS-cog11 test score: 5 of 9
[2]; 14 days q.d. at 3 mg, 10 mg, 30 mg or 90 mg, D21 = 7-days post treatment follow-up
  ADAS-cog11 score change D1-D14 compared to D1-D21: cognitive improvement lasting beyond the end of treatment
